For one series, the system named is HeLa cells. The experiment in a line: Intracellular Tz accumulation by fluorescence liberation from TCO-CMR, HeLa cells. In kind it is cell-based. The conditions noted are these: 50 or 500 μM Tz-COOH for 6 h, then 50 μM TCO-CMR 1-24 h. Here is the method: Next, we tested the intracellular accumulation of Tz via EISA in an attempt to differentiate cancer cells from normal cells. First, we investigated the accumulation of Tz in HeLa cells and HUVECs over time via fluorescence liberation from TCO-CMR (Fig. 3a). […] The cells were then washed with PBS thoroughly before the addition of an excessive amount of TCO-CMR (100 μL, 50 μM), and the reaction of TCO-CMR with the intracellular accumulated Tz was allowed to proceed for up to 24 h (Supplementary Fig. 8). In this experimental setting, the total liberated fluorescence was proportional to the amount of 3 accumulated inside the cells. […] Therefore, the optimized concentration of 2 (e.g. 500 μM) and incubation time (e.g. 6 h) were selected to differentiate between cancer and normal cells according to liberated fluorescence intensity (Fig. 3c). This differentiation was dependent on the considerably different phosphatase activity between these cell lines (Supplementary Fig. 11), allowing EISA to specifically occur in cancer cells as opposed to normal cells.
All cells were purchased from the National Infrastructure of Cell Line Resource (Beijing, China). HeLa cells, HUVECs and CCC-HEH-2 cells were cultured in a humidified CO2 (5%) incubator at 37 °C in DMEM supplemented with 10% foetal bovine serum (FBS, Gibco) and 1% Pen Strep (PS, Gibco). Saos-2 cells were cultured in a humidified CO2 (5%) incubator at 37 °C in McCoy’s 5A medium supplemented with 10% FBS and 1% PS. Cells were plated in flat-bottom 96-well plates (Corning) at a density of 10^4 cells per well and allowed to attach for 12 h. Then, the culture medium was replaced with 100 μL of pre-warmed medium containing 2 at different concentrations (100–500 μM). After incubation for different durations (1–24 h), the cells were rinsed with PBS, and then 100 μL of 50 μM TCO-CMR (dissolved in PBS) was added for real-time detection of the fluorescence intensity of coumarin in a plate reader (Perkin Elmer).

The nature of series [1]: UPLC-MS/MS pharmacokinetic analyses in tumour, liver and plasma. It is filed as in vivo, BALB/c nude mice. The conditions noted are these: within 1 h after i.v. 50 mg kg^−1 2.
Description: For in vivo prodrug activation, mice received an i.v. injection of 50 mg kg^−1 2 and a subsequent 30 mg kg^−1 TCO-Dox after a 2-h interval. After different time intervals, blood samples were collected from the tail veins, and then, the tumours and livers were harvested for UPLC-MS/MS analysis.
UPLC-MS/MS analyses: UPLC-MS/MS metabolomic analyses were performed using a
multiple reaction-monitoring mode (MRM). Data acquisition and processing were performed using LabSolutions version 5 software. Measurements were carried out at
Dox, solvent A consisted of 0.1% formic acid in water and solvent B consisted of 0.1% formic acid in mass spectrometric grade acetonitrile; (2) for compound TCO-Dox, solvent A consisted of 100% water and solvent B consisted of 100% mass spectrometric grade acetonitrile. Injection volume was 2 or 10 L. The mass spectrometer was interfaced with the liquid chromatograph using an electrospray ion source. The nitrogen nebulizing gas flow was set at 10 L min-1 and the drying gas flow at 15 mL min-1. 4500 V were used for the interface voltage. The temperature of the block heater was maintained at 400 °C and the one of the desolvation line at 250 °C. The MRM transitions were
Dox. The collision gas used was argon at 230 kPa. The dwell time was set to 100 msec and the pause time to 3 msec.
Sample preparation: blood samples were collected from the tail vein of mice. Plasma […]
The nature of series [2]: Self-assembly and hydrogelation on addition of alkaline phosphatase (ALP). It is filed as physicochemical. The note with it: after addition of 10 U mL^−1 ALP (dephosphorylated product). The procedure:
The synthesis of the assembly precursor (NapK(Tz)YpF, 2, Fig. 2a) was straightforward (see Supplementary Methods for a detailed protocol). Because KYF was determined to be an excellent self-assembly motif in a tri-peptide census survey, we constructed our assembling molecules based on this sequence. The conjugation of a strong π–π stacking moiety, namely, a naphthalene group, to the N terminus may further enhance the self-assembly potential of this molecule. Phosphorylation on tyrosine (Y) enabled the responsiveness of this motif to phosphatase. All of these components were sequentially conjugated via typical Fmoc-based solid-phase peptide synthesis (SPPS) to yield NapKYpF (1). The capability of self-assembly and hydrogelation of 1 was confirmed by the addition of 10 U mL^−1 alkaline phosphatase (ALP) into a solution of 1 (Supplementary Fig. 1). The dephosphorylated product of 1 formed transparent hydrogels with a network of uniform nanofibres (Supplementary Fig. 2), and the critical hydrogelation concentration was 1.0 mg mL^−1. The ε-amine of Lys on 1 was conjugated with the Tz derivative Tz-COOH (2-(4-(6-methyl-1,2,4,5-tetrazin-3-yl)phenyl) acetic acid) via an NHS-mediated ester–amide exchange reaction to yield 2. […] Upon the addition of ALP (10 U mL^−1) into the solution of 2, a transparent purple hydrogel was formed within 1 h (Fig. 2b inset), and the critical hydrogelation concentration was 1.0 mg mL^−1 (Supplementary Fig. 3). Similar to the formation of a typical hydrogel, investigation by transmission electron microscopy (TEM) confirmed the existence of numerous uniform nanofibres, each with a diameter of approximately 12 nm, which was close to that of hydrogel 1 (Fig. 2b).

SMILES strings stand for the structures.

These results are taken from paper PMC6261997, “Synergistic enzymatic and bioorthogonal reactions for selective prodrug activation in living systems” (Nature Communications, 2018).

As to `Cc1nnc(-c2ccc(CC(=O)O)cc2)nn1` [Tz-COOH, 2-(4-(6-methyl-1,2,4,5-tetrazin-3-yl)phenyl) acetic acid, reference compound], the “accumulation in HeLa cells” value with HeLa cells was “hardly accumulated”.

As to `Cc1nnc(-c2ccc(CC(=O)NCCCCC(NC(=O)Cc3ccc4ccccc4c3)C(=O)NC(Cc3ccc(O)cc3)C(=O)NC(Cc3ccccc3)C(=O)O)cc2)nn1` (stereo not drawn) [compound 3, NapK(Tz)YF], in series [1], the concentration in tumours entry was “increased significantly within 1 h”.

Turning to `NCCCCC(NC(=O)Cc1ccc2ccccc2c1)C(=O)NC(Cc1ccc(OP(=O)(O)O)cc1)C(=O)NC(Cc1ccccc1)C(=O)O` (stereo not drawn) [compound 1, NapKYpF], the critical hydrogelation concentration in series [2] was 1.0 mg/mL.
